Key:
Test in all cases: biochemical
Conditions in all cases: read-out: % inhibition mean (Lanthascreen)
[1] = target: ACVR1 (ALK2) (Homo sapiens, UniProt Q04771)
[2] = target: ACVR2A (Homo sapiens, UniProt P27037)
[3] = target: ANKK1 (Homo sapiens, UniProt Q8NFD2)
[4] = target: CAMKK1 (CAMKKA) (Homo sapiens, UniProt Q8N5S9)
[5] = target: CDK9 (Inactive) (Homo sapiens, UniProt P50750)
[6] = target: EPHA7 (Homo sapiens, UniProt Q15375)
[7] = target: FGFR1 V561M (Homo sapiens, UniProt P11362, V561M)
[8] = target: FGFR3 G697C (Homo sapiens, UniProt P22607, G697C)
[9] = target: FYN A (Homo sapiens, UniProt P06241)
[10] = target: GRK1 (Homo sapiens, UniProt Q15835)
[11] = target: KIT D816H (Homo sapiens, UniProt P10721, D816H)
[12] = target: KIT V654A (Homo sapiens, UniProt P10721, V654A)
[13] = target: LATS2 (Homo sapiens, UniProt Q9NRM7)
[14] = target: LIMK1 (Homo sapiens, UniProt P53667)
[15] = target: MAP2K1 (MEK1) (Homo sapiens, UniProt Q02750)
[16] = target: MAP4K3 (GLK) (Homo sapiens, UniProt Q8IVH8)
[17] = target: MAPK9 (JNK2) (Homo sapiens, UniProt P45984)
[18] = target: MERTK (cMER) A708S (Homo sapiens, UniProt Q12866, A708S)
[19] = target: MYLK4 (Homo sapiens, UniProt Q86YV6)
[20] = target: NEK8 (Homo sapiens, UniProt Q86SG6)
[21] = target: PKMYT1 (Homo sapiens, UniProt Q99640)
[22] = target: PKN2 (PRK2) (Homo sapiens, UniProt Q16513)
[23] = target: PRKACB (PRKAC beta) (Homo sapiens, UniProt P22694)
[24] = target: RAF1 (cRAF) Y340D Y341D (Homo sapiens, UniProt P04049, Y340D/Y341D)
[25] = target: RET V804M (Homo sapiens, UniProt P07949, V804M)
[26] = target: SIK3 (Homo sapiens, UniProt Q9Y2K2)
[27] = target: STK39 (STLK3) (Homo sapiens, UniProt Q9UEW8)
[28] = target: TGFBR2 (Homo sapiens, UniProt P37173)
Chain of TGFBR2 (P37173 whole entry): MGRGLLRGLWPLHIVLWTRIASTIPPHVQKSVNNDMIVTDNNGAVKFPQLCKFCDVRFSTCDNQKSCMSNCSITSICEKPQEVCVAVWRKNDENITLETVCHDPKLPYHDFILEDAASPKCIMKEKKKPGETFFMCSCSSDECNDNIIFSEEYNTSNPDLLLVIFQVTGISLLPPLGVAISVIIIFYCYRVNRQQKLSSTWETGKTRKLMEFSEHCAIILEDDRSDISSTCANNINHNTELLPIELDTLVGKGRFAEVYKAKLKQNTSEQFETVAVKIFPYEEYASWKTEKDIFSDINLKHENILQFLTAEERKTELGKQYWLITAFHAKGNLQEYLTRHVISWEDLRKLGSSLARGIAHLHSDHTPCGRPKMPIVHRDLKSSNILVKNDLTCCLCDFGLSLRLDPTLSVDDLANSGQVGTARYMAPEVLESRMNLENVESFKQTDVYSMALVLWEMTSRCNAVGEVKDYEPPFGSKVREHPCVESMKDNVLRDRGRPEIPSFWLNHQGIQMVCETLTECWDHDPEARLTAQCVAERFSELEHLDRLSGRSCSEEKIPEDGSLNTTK

Chain of MAP4K3 (GLK) (Q8IVH8 whole entry): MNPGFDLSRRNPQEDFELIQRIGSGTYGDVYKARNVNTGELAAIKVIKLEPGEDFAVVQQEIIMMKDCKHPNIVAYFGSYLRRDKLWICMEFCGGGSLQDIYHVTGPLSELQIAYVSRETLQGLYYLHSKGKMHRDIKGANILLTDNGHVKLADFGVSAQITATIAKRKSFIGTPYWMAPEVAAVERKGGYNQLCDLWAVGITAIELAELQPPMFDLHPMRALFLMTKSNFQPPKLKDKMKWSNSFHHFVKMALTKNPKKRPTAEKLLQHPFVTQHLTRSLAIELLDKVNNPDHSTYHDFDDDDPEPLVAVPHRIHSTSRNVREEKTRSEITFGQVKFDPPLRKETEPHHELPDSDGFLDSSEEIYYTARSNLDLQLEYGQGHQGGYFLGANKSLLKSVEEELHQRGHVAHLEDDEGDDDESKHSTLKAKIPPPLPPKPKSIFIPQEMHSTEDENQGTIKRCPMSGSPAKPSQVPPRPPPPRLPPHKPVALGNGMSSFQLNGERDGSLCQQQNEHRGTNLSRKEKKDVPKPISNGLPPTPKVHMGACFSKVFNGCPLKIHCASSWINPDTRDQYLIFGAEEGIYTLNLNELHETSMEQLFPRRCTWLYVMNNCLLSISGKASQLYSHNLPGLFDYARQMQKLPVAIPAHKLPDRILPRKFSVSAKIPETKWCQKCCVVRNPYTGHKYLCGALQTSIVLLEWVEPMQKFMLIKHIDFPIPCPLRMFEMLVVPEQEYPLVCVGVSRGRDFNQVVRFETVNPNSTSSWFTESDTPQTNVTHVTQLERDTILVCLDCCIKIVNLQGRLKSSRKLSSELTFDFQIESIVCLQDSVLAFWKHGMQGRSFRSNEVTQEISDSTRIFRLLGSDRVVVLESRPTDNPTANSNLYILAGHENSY
Chain of MYLK4 (Q86YV6 whole entry): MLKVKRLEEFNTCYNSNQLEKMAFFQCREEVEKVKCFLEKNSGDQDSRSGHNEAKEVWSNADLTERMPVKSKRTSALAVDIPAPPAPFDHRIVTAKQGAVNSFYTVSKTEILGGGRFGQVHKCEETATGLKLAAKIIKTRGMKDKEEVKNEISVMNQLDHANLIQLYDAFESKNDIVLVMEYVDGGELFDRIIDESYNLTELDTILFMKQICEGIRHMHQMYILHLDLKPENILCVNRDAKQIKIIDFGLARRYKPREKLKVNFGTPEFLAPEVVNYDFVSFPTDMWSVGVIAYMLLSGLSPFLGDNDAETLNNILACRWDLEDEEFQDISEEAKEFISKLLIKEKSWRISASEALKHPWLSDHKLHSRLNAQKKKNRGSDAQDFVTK
Chain of KIT V654A (P10721 whole entry V654A): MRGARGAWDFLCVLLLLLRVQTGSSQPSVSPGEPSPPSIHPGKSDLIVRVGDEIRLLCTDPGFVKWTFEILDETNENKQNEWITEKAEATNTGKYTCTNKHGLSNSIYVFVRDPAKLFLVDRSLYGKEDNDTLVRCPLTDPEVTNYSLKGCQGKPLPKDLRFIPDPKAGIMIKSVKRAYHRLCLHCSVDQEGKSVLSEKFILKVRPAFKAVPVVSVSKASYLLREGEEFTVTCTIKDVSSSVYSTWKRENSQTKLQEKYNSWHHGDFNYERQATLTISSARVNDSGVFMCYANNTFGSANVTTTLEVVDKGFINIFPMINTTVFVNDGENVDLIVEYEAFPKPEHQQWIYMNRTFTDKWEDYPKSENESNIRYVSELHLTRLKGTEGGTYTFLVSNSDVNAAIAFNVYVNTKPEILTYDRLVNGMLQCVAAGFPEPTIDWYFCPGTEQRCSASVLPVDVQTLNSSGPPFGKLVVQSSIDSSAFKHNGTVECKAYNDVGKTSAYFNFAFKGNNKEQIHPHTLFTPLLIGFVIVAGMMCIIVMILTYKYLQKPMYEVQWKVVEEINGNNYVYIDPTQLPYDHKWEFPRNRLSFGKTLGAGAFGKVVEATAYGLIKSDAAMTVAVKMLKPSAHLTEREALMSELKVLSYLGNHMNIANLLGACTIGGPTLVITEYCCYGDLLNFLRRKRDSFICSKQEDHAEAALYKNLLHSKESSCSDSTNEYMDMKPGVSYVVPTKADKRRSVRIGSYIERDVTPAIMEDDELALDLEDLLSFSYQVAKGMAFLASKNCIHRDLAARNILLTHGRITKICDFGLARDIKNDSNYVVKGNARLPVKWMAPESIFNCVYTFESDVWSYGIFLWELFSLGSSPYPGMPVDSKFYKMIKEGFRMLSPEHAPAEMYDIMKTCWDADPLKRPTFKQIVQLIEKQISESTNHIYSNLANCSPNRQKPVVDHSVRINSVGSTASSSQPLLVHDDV
Chain of LATS2 (Q9NRM7 whole entry): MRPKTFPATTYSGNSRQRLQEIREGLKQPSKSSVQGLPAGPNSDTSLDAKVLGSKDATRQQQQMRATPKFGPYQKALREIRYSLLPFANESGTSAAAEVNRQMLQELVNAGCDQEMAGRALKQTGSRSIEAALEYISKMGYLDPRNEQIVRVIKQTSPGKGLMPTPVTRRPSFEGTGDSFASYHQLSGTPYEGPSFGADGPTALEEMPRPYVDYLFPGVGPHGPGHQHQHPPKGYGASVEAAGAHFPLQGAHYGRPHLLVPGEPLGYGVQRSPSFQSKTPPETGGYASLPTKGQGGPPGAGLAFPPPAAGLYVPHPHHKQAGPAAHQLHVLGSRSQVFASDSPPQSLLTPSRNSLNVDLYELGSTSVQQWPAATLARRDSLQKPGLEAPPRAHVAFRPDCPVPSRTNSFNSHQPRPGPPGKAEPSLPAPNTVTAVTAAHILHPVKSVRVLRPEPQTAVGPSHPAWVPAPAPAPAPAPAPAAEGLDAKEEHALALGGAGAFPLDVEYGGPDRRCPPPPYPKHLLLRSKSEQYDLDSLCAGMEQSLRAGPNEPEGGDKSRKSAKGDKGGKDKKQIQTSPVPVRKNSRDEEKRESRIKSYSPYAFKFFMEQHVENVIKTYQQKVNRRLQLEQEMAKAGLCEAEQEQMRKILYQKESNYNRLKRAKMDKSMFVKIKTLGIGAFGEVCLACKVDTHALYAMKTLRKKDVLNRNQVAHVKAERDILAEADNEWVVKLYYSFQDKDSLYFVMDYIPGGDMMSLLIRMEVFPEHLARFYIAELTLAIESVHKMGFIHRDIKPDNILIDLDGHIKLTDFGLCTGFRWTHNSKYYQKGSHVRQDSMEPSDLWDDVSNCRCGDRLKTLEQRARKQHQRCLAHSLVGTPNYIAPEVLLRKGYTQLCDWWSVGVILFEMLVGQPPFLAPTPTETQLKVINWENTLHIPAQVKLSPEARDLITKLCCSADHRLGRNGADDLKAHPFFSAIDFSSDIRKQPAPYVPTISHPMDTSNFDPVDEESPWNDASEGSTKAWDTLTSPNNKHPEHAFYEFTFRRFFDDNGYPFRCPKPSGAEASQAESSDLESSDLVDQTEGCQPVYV
Chain of EPHA7 (Q15375 whole entry): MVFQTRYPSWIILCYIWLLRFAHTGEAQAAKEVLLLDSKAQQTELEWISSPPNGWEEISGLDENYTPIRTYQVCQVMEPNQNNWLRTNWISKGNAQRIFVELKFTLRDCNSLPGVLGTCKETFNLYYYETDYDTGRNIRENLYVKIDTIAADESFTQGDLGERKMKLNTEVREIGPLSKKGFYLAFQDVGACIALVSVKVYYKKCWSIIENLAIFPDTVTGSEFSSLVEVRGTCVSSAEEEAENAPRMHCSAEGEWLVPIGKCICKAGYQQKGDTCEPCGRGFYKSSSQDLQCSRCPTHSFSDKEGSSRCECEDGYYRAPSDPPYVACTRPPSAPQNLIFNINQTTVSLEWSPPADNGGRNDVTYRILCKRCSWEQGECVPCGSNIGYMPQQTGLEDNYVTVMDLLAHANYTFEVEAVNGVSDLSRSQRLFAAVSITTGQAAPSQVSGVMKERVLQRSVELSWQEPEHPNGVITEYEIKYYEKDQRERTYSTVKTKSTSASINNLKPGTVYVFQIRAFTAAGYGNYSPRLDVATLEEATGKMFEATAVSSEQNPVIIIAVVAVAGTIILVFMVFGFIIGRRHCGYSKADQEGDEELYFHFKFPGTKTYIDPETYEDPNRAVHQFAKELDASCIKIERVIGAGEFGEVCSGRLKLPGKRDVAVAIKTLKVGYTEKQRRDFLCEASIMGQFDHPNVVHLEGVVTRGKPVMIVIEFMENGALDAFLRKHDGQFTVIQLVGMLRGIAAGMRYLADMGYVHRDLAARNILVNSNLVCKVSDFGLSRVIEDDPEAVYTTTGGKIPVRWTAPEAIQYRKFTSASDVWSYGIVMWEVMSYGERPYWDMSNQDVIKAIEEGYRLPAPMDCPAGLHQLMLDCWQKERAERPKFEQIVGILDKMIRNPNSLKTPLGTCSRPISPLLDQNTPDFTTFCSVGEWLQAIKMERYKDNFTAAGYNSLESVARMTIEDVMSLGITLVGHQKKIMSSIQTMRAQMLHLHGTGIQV
Chain of KIT D816H (P10721 whole entry D816H): as the sequence (P10721 whole entry V654A) above, with A654V, D816H counted along it

With `COc1ccc2nc3cc(Cl)ccc3c(Nc3cc(CN4CCCC4)c(O)c(CN4CCCC4)c3)c2n1` [Pyronaridine, 4-[(7-Chloro-2-methoxybenzo[b][1,5]naphthyridin-10-yl)amino]-2,6-bis(1-pyrrolidinylmethyl)phenol phosphate (1:4)] the inhibition at 1 µM [1] was 0%, the inhibition at 1 µM [2] was -6% and the inhibition at 1 µM [3] was -2%. For the same molecule, the inhibition at 1 µM [4] was 15%, the inhibition at 1 µM [5] was -10% and the inhibition at 1 µM [6] was -3%. The inhibition at 1 µM [7] was 5%, the inhibition at 1 µM [8] was 7% and the inhibition at 1 µM [9] was -3%. For the same molecule, the inhibition at 1 µM [10] was 1%, the inhibition at 1 µM [11] was -7% and the inhibition at 1 µM [12] was 10%. The inhibition at 1 µM [13] was -4%, the inhibition at 1 µM [14] was -7% and the inhibition at 1 µM [15] was 1%. For the same molecule, the inhibition at 1 µM [16] was 1%, the inhibition at 1 µM [17] was 6% and the inhibition at 1 µM [18] was 0%. For the same molecule, the inhibition at 1 µM [19] was -9%, the inhibition at 1 µM [20] was 0% and the inhibition at 1 µM [21] was 1%. The inhibition at 1 µM [22] was 6%, the inhibition at 1 µM [23] was 12% and the inhibition at 1 µM [24] was -5%. The inhibition at 1 µM [25] was -1%, the inhibition at 1 µM [26] was -2% and the inhibition at 1 µM [27] was -19%. It also gave an inhibition at 1 µM [28] of -4%.

— doi:10.1101/2021.09.30.462449v1 (biorxiv, 2021)
